Reference: patent US20040055092A1, “Use of percarbamic acids and diacyl percarbamates and precursors therefor” (priority 2000, published 2004)

Columns and labels:
[1] = Bleaching of dye solutions (degree of dye removal); conditions: activator 2 g/l
Method: The bleaching solution was prepared as follows: […] Bleach activator 2 g/l […] Total volume 25 ml pH 3 was obtained with acetic acid; pH 7 was obtained with sodium dihydrogen phosphate (0.1M) and sodium hydroxide (0.1M); pH 10 was obtained using sodium carbonate. […] The degree of dye removal or bleaching (R %) was calculated using the following equation: % R=1-(A2/A1)×100 […]

E. Coli = E. Coli cultures exposed 45 minutes at 37° C., plate counts; format: cell-based; conditions: peroxide 5 g/l and/or ASP 1 3 g/l; for Counts recorded: 45 minutes at 37° C., controls 40×10^8 (time zero), 37×10^8 (45 minutes), average of three; for reduction in bacteria count / kill: 45 minutes treatment at 37° C.
Method: Cultures of E. Coli in Ringer's saline were exposed to various conditions for 45 minutes at 37° C. These were then serially diluted (eight 10-fold dilutions) and plated onto nutrient agar (treatments were done in triplicate to ensure reproducibility), and five tests were done overall as shown below. Initial E. Coli concentration was approximately 5×10^9/ml and cultures were grown in nutrient broth overnight before being centrifuged and then re-suspended in saline. A E. Coli control-time zero. B E. Coli control-time 45 minutes C E. Coli plus peroxide at 5 g/l for 45 minutes D E. Coli plus […] at 3 g/l for 45 minutes E E. Coli plus peroxide of 5 g/l plus […] (3 g/l) for 45 minutes Plates were observed and counted after 2 days incubation at 37° C.

In the case of `OO` [H2O2, Hydrogen peroxide], the “degree of dye removal % R” value ([1]; pH 3, 20° C., 3 hours) is reported as 3.3%, the “degree of dye removal % R” value ([1]; pH 3, 20° C., 24 hours) is reported as 85% and the “degree of dye removal % R” value ([1]; pH 7, 20 C., 3 hours) is reported as 2.7%. The “degree of dye removal % R” value ([1]; pH 7, 20 C., 24 hours) was 7.1%, the “degree of dye removal % R” value ([1]; pH 10, 20°C., 3 hours) was 11.3% and the “degree of dye removal % R” value ([1]; pH 10, 20°C., 24 hours) was 24.8%. The Counts recorded (E. Coli) was 12.9×10^8 colony forming units ml^−1 and the “reduction in bacteria count / kill” value (E. Coli) was roughly 66%.

For `NC(=O)S(=O)(=O)O` [ASP 1], the Counts recorded (E. Coli) was 7.9×10^8 colony forming units ml^−1 and the “reduction in bacteria count / kill” value (E. Coli) was “about 80%”.
